Results: patent US11505782B2 (priority 2018, dated 2022)
“And” between values parts separate entries of the source, which are not always exact repeats. Equal entries are not always repeated. Where two headings read alike, the source gives them in different places.

Legend:
JAK1/JAK2 = type: cell-based, human
[1] = system: PC3 human prostate cancer cells; type: cell-based
complement C3 [2] = molecular target: T1, complement C3 (Homo sapiens, UniProt P01024); type: cell-based; settings: 72 h
complement C3 [3] = molecular target: T1, complement C3; type: cell-based; settings: 48 h
[4] = system: PC3 human prostate cancer cells; type: cell-based; remark: listed apart in the source

T1 sequence (P01024 672-1663): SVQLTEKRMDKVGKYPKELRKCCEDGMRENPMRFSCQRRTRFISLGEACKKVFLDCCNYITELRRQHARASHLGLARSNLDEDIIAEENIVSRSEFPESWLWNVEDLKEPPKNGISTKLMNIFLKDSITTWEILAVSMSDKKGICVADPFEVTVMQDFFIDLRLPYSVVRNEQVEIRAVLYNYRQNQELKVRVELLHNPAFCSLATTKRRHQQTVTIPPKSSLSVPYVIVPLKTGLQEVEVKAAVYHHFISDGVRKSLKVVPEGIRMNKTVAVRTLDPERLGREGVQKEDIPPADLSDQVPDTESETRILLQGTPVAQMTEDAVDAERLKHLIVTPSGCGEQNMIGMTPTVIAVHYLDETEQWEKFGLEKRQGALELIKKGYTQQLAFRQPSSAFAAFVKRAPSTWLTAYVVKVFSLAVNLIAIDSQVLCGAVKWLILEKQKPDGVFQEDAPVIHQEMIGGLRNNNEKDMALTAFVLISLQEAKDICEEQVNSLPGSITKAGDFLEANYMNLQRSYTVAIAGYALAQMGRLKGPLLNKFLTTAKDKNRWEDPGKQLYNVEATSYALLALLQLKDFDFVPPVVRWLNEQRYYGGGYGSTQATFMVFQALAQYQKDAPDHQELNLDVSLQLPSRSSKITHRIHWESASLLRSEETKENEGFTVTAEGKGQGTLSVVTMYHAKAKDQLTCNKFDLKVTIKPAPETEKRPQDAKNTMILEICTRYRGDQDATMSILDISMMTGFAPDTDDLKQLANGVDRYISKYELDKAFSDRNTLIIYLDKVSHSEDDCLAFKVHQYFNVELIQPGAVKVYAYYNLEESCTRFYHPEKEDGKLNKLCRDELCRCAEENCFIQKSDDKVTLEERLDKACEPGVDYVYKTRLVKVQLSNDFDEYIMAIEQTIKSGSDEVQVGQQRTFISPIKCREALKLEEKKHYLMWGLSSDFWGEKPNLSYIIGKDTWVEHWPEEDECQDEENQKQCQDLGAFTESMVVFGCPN
T1 sequence (P01024 23-667): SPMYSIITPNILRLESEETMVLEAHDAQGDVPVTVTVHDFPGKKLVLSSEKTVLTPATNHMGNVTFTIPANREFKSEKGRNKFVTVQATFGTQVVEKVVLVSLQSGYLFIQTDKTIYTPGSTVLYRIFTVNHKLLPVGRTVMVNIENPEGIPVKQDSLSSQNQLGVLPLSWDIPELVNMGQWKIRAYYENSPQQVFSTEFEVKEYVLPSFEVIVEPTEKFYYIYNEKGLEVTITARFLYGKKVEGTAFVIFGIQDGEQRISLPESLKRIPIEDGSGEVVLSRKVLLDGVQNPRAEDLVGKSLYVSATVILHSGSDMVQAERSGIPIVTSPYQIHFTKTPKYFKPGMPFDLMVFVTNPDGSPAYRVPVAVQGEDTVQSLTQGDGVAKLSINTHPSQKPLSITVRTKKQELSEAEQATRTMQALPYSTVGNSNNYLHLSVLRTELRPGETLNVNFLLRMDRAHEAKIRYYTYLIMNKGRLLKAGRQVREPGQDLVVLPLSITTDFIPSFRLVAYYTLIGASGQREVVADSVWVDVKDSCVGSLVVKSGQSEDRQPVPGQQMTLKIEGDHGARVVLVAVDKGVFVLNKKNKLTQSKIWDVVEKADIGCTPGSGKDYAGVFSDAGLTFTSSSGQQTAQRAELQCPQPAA

Row | Compound | Average Fluorescence Intensity Density (JAK1/JAK2) | Average Fluorescence Intensity Density [1] | % Increase in Fluorescence (complement C3 [2]) [%] | Average Fluorescence Intensity Density (complement C3 [2]) | increase of fluorescent signal compared to control cells (complement C3 [2]) [%] | Average Fluorescence Intensity Density (complement C3 [3]) | increase of fluorescence intensity vs serum only control (complement C3 [3]) [%] | increase of fluorescence intensity (partial reversal of complement-mediated suppression of virus spreading) [4] [%] | Average Fluorescence Intensity Density ([4]; 48 h)
1 | N#CC[C@H](C1CCCC1)n1cc(-c2ncnc3[nH]ccc23)cn1 [Ruxolitinib] | 0.074 and 0.0755 and 0.0735 | 3.8 and 6.0 |  |  |  |  |  |  | 
2 | CC[C@H](C)[C@H](N)C(=O)N[C@H]1CSSC[C@@H](C(=O)N[C@H](C(N)=O)[C@@H](C)O)NC(=O)[C@H](CCCN=C(N)N)NC(=O)[C@H](Cc2cnc[nH]2)NC(=O)[C@H](Cc2cnc[nH]2)NC(=O)CNC(=O)[C@H](Cc2c[nH]c3ccccc23)NC(=O)[C@H](CC(=O)O)NC(=O)[C@H](CCC(N)=O)NC(=O)[C@H](C(C)C)NC(=O)[C@H](C(C)C)NC1=O [compstatin] |  |  | 50 | 0.09 | 50 | 0.0945 and 0.0670 and 0.0920 | 27.7 | 28.5 | 36.4
